Data: article PMC10096842, “Identification of Flavone Derivative Displaying a 4′-Aminophenoxy Moiety as Potential Selective Anticancer Agent in NSCLC Tumor Cells” (Molecules, 2023)

What was measured:
[1] = tested on: human dermal fibroblasts (HDF); assay: MTT cell viability assay, HDF; format: cell-based; conditions: Fibroblast, 72 h
Procedure: (§1) The human non-small cell lung cancer (NSCLC) and Human Dermal Fibroblasts (HDF) cell lines were all obtained from the American Type Culture Collection (ATCC). The H1975 (CRL-5908™) cell line was grown in RPMI 1640 medium (ECB2000) while the A549 (CCL-185™) and HDF were grown in complete DMEM medium (ECM0095) All cultures were supplemented with 10% fetal bovine serum (FBS), 2 mM L-glutamine, 100 U/mL penicillin, and 100 µg/mL streptomycin,. All cell lines were routinely maintained in 75 cm^2 flasks in a cell incubator at 37 °C, 5% CO2, and 95% relative humidity. The cell cultures were detached by trypsinization with 0.5% trypsin in PBS containing 0.025% EDTA. All cell culture reagents were supplied by Euroclone (Milan, Italy).
(§2) The number of metabolically active cells, and thus cell viability, was assessed by a 3-(4,5-dimethylthiazol-2-yl)-2,5-diphenyltetrazolium bromide (MTT) assay as previously described. The NSCLC cell lines (A549 and H1975) and HDF were seeded in 96-well plates to reach 50% confluence at 24 h; then, the medium was removed and replaced with 0.2 mL of fresh culture medium containing increasing compound concentrations (0–160 µM). After 72 h, the medium from each well was removed and replaced with fresh medium supplemented with MTT at a final concentration of 200 µg/mL. After incubation for 4 h at 37 °C, 0.2 mL of DMSO was added to each well followed by multiwell shaking for 4 min. The absorbance was read on a multiwell scanning microplate reader (BioTek Synergy HT MicroPlate Reader Spectrophotometer, BioTek Instruments Inc., Winooski, VT, USA) at 570 nm using the extraction buffer as a blank. The optical density in the control group (untreated cells) was considered as 100% viability. The relative cell viability (%) was calculated as (OD570 of treated samples/OD570 of untreated samples) × 100. Dose-dependent curves were therefore generated for the cytotoxic studies. The 50% inhibiting concentration (IC50) was determined by non-linear regression analysis with a three-parameter fit by utilizing SigmaPlot 12.0 Software, USA, Systat Software, Inc. SigmaPlot for Windows. Each experiment was performed at least five times in triplicate.

[2] = LogP determination (1-octanol/PBS partition, UV-vis); format: physicochemical; conditions: for logP: 1-octanol/PBS, pH 7.4, 1-octanol/PBS pH 7.4, read-out: Experimental LogP
Procedure: LogP was determined as previously described. Briefly, solutions of each APF were prepared in 1-octanol, and UV-vis spectra were acquired to determine the λmax. After having placed 2.5 mL of each solution in 10 mL conical centrifuge tubes, PBS was added (2.5 mL, pH 7.4) and the biphasic system was mixed using a vortex mixer (VELP Scientifica, Usmate Velate MB, Italy) followed by centrifugation (2000× g, 5 min). Then, the octanol phase absorption was measured at λmax. The partition coefficient Ko/w was calculated according to the following equation:Ko/w = [APF]oct/[APF]PBS = […] where Ai is the initial measured absorbance in octanol, pre-extraction, and Af is the final measured absorbance in octanol, post-extraction.

H1975 NSCLC cells = assay: MTT cell viability assay, H1975; format: cell-based, human; conditions: for IC50: Homo sapiens, NCI-H1975, 72 h, H1975, 72 h, MTT; for SI (Selectivity Index): IC50 HDF / IC50 H1975
Procedure: as §1, §2

A549 NSCLC cells = assay: MTT cell viability assay, A549; format: cell-based, human; conditions: for IC50: Homo sapiens, A549, 72 h, MTT; for SI (Selectivity Index): IC50 HDF / IC50 A549
Procedure: as §1, §2

logP [2]	IC50 (H1975 NSCLC cells) [µM]	IC50 (A549 NSCLC cells) [µM]	Experimental LogP ([2]; 1-octanol/PBS pH 7.4)	SMILES	IC50 [1] [µM]	SI (Selectivity Index) (H1975 NSCLC cells)	SI (Selectivity Index) (A549 NSCLC cells)
3.2 ± 0.3	10 ± 5	7 ± 3		Nc1ccc(Oc2ccc3oc(-c4ccc(Oc5ccccc5)cc4)cc(=O)c3c2)cc1 [APF-5, 6-(4-aminophenoxy)-2-(4′-phenoxy)phenyl-4H-chromen-4-one]	55 ± 2	5.5	7
2.9 ± 0.2	> 160	32 ± 5		Nc1ccc(Oc2cccc3oc(-c4cccc(Oc5ccccc5)c4)cc(=O)c23)cc1 [APF-4, 5-(4-aminophenoxy)-2-(3′-phenoxy)phenyl-4H-chromen-4-one]	> 160		>5
2.3	50 ± 5	22 ± 3	2.1 ± 0.3	Nc1ccc(Oc2ccc3oc(-c4ccccc4)cc(=O)c3c2)cc1 [APF-2, 6-(4-aminophenoxy)-2-(phenyl)-4H-chromen-4-one]	> 160	>3	>8
